The record followed here is ChEMBL document CHEMBL6115028, “An Amazing 30-Year Journey around the DABO Family: A Medicinal Chemistry Lesson on a Versatile Class of Non-nucleoside HIV-1 Reverse Transcriptase Inhibitors” (J Med Chem, 2025).

For one data set, the system named is HOP-92. Briefly: Growth inhibition of human HOP-92 cells at 10 uM relative to control. It counts as functional. Particulars: read-out: GI.
The subject of data set [1] is Human immunodeficiency virus 1. Briefly: Antiviral activity against HIV-1 IIIB infected in […] cells assessed as reduction in viral replication measured for 72 hrs. It counts as functional, organism-based. To be noted: Human immunodeficiency virus 1, IIIB.
For data set [2], the target named is Human immunodeficiency virus type 1 reverse transcriptase (Human immunodeficiency virus 1, UniProt Q72547). Briefly: Inhibition of HIV-1 Reverse transcriptase.
The nature of data set [3]: Solubility in water. It counts as physicochemical.
Data set [4] can be described thus: Oral bioavailability in rat. Format: ADME, organism-based. To be noted: in vivo.
A further data set deals with Hepatitis B virus. Put plainly: Antiviral activity against Hepatitis B virus infected in human HepG2.2.15 cells assessed as inhibition of HBV DNA production by qRT-PCR analysis. It counts as functional, organism-based. On the technique in general: In qPCR the cycle at which signal appears reflects the starting amount.
The subject of another data set is HepG2 2.2.15. Briefly: Cytotoxicity against human HepG2.2.15 cells assessed as reduction in cell growth by MTT assay. Format: functional. Background: Formazan colour is commonly taken as a measure of viable cells.
A short description of data set [5]: Inhibition of Hepatitis C virus NS5B RNA dependent RNA polymerase. More on the design: species or system Hepacivirus hominis.
Data set [6] can be described thus: Cytotoxicity against African green monkey Vero cells assessed as reduction in cell viability measured after 96 hrs by MTT assay. It counts as toxicity, cell-based. To be noted: chlorocebus sabaeus.
The test system of a further data set is Zika virus. Put plainly: Antiviral activity against Zika virus infected in Vero cells assessed as reduction in viral DNA replication. Format: functional, organism-based.
A short description of data set [7]: Inhibition of Zika virus NS5 RNA-directed RNA polymerase NS5.
A short description of data set [8]: Cytotoxicity against African green monkey Vero cells assessed as reduction in cell growth measured after 96 hrs by MTT assay. It counts as toxicity, cell-based. Particulars: chlorocebus sabaeus.
For data set [9], the system named is A-375. Put plainly: Inhibition of cell proliferation in human A-375 cells assessed as alive cells at 50 uM measured for 96 hrs relative to control. It counts as functional.
The subject of data set [10] is A-375. Put plainly: Inhibition of cell proliferation in human A-375 cells assessed as alive cells at 100 uM measured for 96 hrs relative to control. It counts as functional.
For another data set, the system named is Hepatitis C virus. Put plainly: Antiviral activity against Hepatitis C virus infected in human Huh7.5 cells assessed as reduction in viral replication. It counts as functional, organism-based, Hepacivirus hominis.
A further data set has as its system Huh-7. Briefly: Cytotoxicity against human Huh-7 cells assessed as reduction in cell growth. It counts as functional.
In the next data set the test system is MOLT-4. Briefly: Growth inhibition of human MOLT-4 cells at 10 uM relative to control. Format: functional. Particulars: read-out: GI.

As a reminder, the EC50 is the midpoint of the concentration-response curve. A word on the IC50: it is the concentration that gives 50% inhibition. A word on the solubility: it is the concentration that dissolves in the medium under given conditions. The bioavailability is the share of a dose that reaches the circulation, judged against a reference dose that is usually intravenous. A word on the CC50: it is the concentration at which the toxic effect on the cells reaches its halfway point. Usually inhibition stands for the percentage by which the read-out fell short of the control.

Values after ≈ are worked out from the molar mass of the structure shown.

As for `N#Cc1c(-c2c(Cl)cccc2Cl)nc(SCC(=O)c2ccc(Br)cc2)[nH]c1=O`, in the data set on HOP-92, the inhibition of growth at 10 µM was determined as 41%.

Consider `CCc1c(CC2CCCCC2)nc(SCC(=O)c2ccc(OP(=O)(OC)OC)cc2)[nH]c1=O`, for which the EC50 in [1] is 0.01 µM. This molecule also came in with an IC50 in data set [2] of 0.75 µM. This molecule came in with a solubility in [3] of 6.4 µM (≈ 3.17 µg/mL). The bioavailability in data set [4] came out at 14.6%.

`O=c1[nH]c(SC2OC[C@H](O)[C@@H](O)[C@@H]2O)nc(Cc2ccccc2)c1Cc1ccccc1` (stereo partly drawn): in the data set with Hepatitis B virus, the EC50 worked out at 0.2 µM. The CC50 in the data set with HepG2 2.2.15 was greater than 100 µM.

For the molecule `CCc1c(C2CCCCC2)nc(SCC(=O)Nc2cc(F)cc(F)c2)[nH]c1=O`, the IC50 in data set [5] turned out to be 0.102 µM; in [7], 11.4 µM. Further, the CC50 at 96 h in data set [6] was greater than 10 µM; in [8] it was greater than 200 µM. In addition, in the data set on Zika virus, the EC50 stood at 7.65 µM.

On to `CCC(C)Sc1nc(C(C)c2c(F)cccc2F)nc(=O)[nH]1` (stereo not drawn), for which the inhibition at 50 µM in the data set on A-375 [9] was found to be 62%. Besides, in the data set with A-375 [10], the inhibition at 100 µM stood at 14%.

In turn, `CCc1c(-c2ccc(C(C)C)cc2)nc(Sc2ccccc2Br)[nH]c1=O` showed an IC50 in data set [5] of 3.8 µM. Also, the EC50 in the data set on Hepatitis C virus was determined as 32 µM. In addition, the CC50 with Huh-7 is greater than 250 µM.

With `CCc1ccc(-c2nc(SCC(=O)c3ccc(Br)cc3)[nH]c(=O)c2C#N)s1`, the inhibition of growth at 10 µM in the data set on MOLT-4 amounted to 42.4%.
